Structures can show the parent of a compound that is named as a salt.
Legend:
[1] = system: rats; assay: Amount of locomotor activity; format: in vivo, rat; details: 0.3, 1, and 3 mg/kg i.p.; minutes 0-15
Source text: For the test, Crl: CD(SD) male rats supplied by Charles River Japan were used (6 weeks old at start of test). For the forced swimming test, the method of the improved type reported by Lucki et al. (Lucki I., “The forced swimming test as a model for core and component behavioral effects of antidepressant drugs”, Behavioural Pharmacology, 1997, 8, p. 523-532; Cryan J. F. et al., “Assessing antidepressant activity in rodents: recent developments and future needs”, TRENDS in Pharmacological Sciences, 2002, 23, p. 238-245) was used. On day 1, each rat was placed in a cylinder filled with water (height 45 cm×diameter 30 cm, water depth 30 cm, water temperature 23° C., water depth set to depth by which back legs and tail of rat will not touch the bottom). The rat was taken out after 15 minutes. At this time, the immobility period (seconds) of minutes 10-15 (5 minutes) was recorded. Based on the results, the rats were assigned to five groups so that there would be no difference among the groups. On day 2, each rat was placed in a cylinder filled with water the same as day 1 and the immobility period (seconds), swimming behavior period (seconds), and climbing behavior period (seconds) of minutes 0-5 (5 minutes) were measured. […]

[2] = system: rats; assay: Forced swimming method (anti-depressive action); format: in vivo, rat
Source text: For the test, Crl: CD(SD) male rats supplied by Charles River Japan were used (6 weeks old at start of test). For the forced swimming test, the method of the improved type reported by Lucki et al. (Lucki I., “The forced swimming test as a model for core and component behavioral effects of antidepressant drugs”, Behavioural Pharmacology, 1997, 8, p. 523-532; Cryan J. F. et al., “Assessing antidepressant activity in rodents: recent developments and future needs”, TRENDS in Pharmacological Sciences, 2002, 23, p. 238-245) was used. On day 1, each rat was placed in a cylinder filled with water (height 45 cm×diameter 30 cm, water depth 30 cm, water temperature 23° C., water depth set to depth by which back legs and tail of rat will not touch the bottom). The rat was taken out after 15 minutes. At this time, the immobility period (seconds) of minutes 10-15 (5 minutes) was recorded. Based on the results, the rats were assigned to five groups so that there would be no difference among the groups. On day 2, each rat was placed in a cylinder filled with water the same as day 1 and the immobility period (seconds), swimming behavior period (seconds), and climbing behavior period (seconds) of minutes 0-5 (5 minutes) were measured. Note that the immobility period was defined as the minimum extent of movement for the rat to hold its head above the water, the swimming behavior as the swimming behavior circling around the inside of the cylinder in the horizontal direction, and the climbing behavior as the climbing behavior moving the forelimbs in the vertical direction along the cylinder walls to try to climb them. The tested substance was intraperitoneally administered 15 minutes after the end of swimming on day 1, and 4 hours and 30 minutes before swimming on day 2. Further, for the amount of locomotor activity, a measuring system (shape 48.8×48.8×30 cm, vertical 8 fractions, horizontal 8 fractions, for total of 64 fractions, Biomedica) set in a blacked out soundproof box was used to record the amount of locomotor activity of the rats at minutes 0-15 (15 minutes). Note that the dosages and timings of administration of the tested substances were set in the same way as the forced swimming test and the substance were intraperitoneally administered 24 hours, 4 hours, and 30 minutes before measurement of the amount of locomotor activity.

[3] = Concentration in plasma after sustained subcutaneous administration (osmotic pump); format: in vivo; details: rat, sc, after the end of the behavioral experiments
Procedure: Therefore, the inventors prepared Parkinson's disease model rats in the same way as in Example 4 and treated the rats by repeated doses of levodopa (twice a day, Monday to Friday) for 7 weeks. The presence or absence of the rotational behavior of each rat was recorded at approximately 1 hour after the administration of levodopa during the repeated dosing period. […] Therefore, from weeks 1 to 5 of repeated doses of levodopa, the inventors recorded the presence of any rotational behavior of the rats each time, then studied the effects of the tested substances from week 6 of repeated doses of levodopa by implanting an Aizet® osmotic pump filled with SUN N4057 or physiological saline (2ML4, volume 2 ml, flow rate 2.5 μl/hr) subcutaneously at the rats. In the 2 weeks after that, the inventors similarly continued to record the presence of any rotational behavior of the rats 1 hour after levodopa administration.
Note that the measured values of the concentration of SUN N4057 in the plasma of each group measured after the end of the behavioral experiments were 5.3±0.7 ng/mL in the SUN N4057 low dosage sustained subcutaneous administration group and 14.3±2.9 ng/mL in the high dosage sustained subcutaneous administration group.

[4] = system: Parkinson's disease model rats; assay: Inhibition of induction of hyperkinesia of the forelimbs; format: in vivo, rat
Procedure: By repeated doses of levodopa to Parkinson's disease model rats, hyperkinesia of the forelimbs (abnormal action similar to dyskinesia in clinical studies) was observed (see FIG. 3). Therefore, it was studied whether it is possible to inhibit the induction of hyperkinesia of the forelimbs by repeated dosage of the tested substance from the start along with the start of repeated doses of levodopa.
The tested substance was intraperitoneally administered about 20 minutes before levodopa administration.

[5] = Solubility (choice of solvent); format: physicochemical; details: physiological saline
Procedure: Note that the SUN […] was subcutaneously administered right before levodopa administration, the sarizotan was orally administered about 20 minutes before levodopa dosage in accordance with above-mentioned known reports (Bibbiani F. et al., Neurology, 2001, 57, p. 1829-1834), and the Example Compound 4 of Japanese Patent Publication No. 2005-298402A was subcutaneously administered about 30 minutes before levodopa dosage in accordance with the above-mentioned Japanese Patent Publication No. 2005-298402A. Further, for the solvent, for SUN […] and Example Compound 4 of Japanese Patent Publication No. 2005-298402A, physiological saline was used.

| Structure (SMILES) | amount of locomotor activity [1] | immobility period ([2]; 0.3, 1 and 3 mg/kg i.p., minutes 0-5 on day 2) | swimming behavior period ([2]; 1, 3 mg/kg i.p.) | concentration at 2 weeks ([3]; high dosage sustained subcutaneous administration group) | concentration at 2 weeks ([3]; low dosage sustained subcutaneous administration group) | hyperkinesia of the forelimbs compared with the results after the 3 week withdrawal period ([4]; 3 mg/kg i.p. for 3 weeks) | appearance of hyperkinesia of the forelimbs ([4]; 3 mg/kg i.p. for 3 weeks together with the start of repeated doses of levodopa) | solubility (in words) [5] |
| --- | --- | --- | --- | --- | --- | --- | --- | --- |
| O=C1c2ccccc2OC=C(Cl)N1CCCCN1CC=C(c2ccccn2)CC1 [SUN N4057, 3-chloro-4,5-dihydro-4-{4-[4-(2-pyridyl)-1,2,3,6-tetrahydropyridin-1-yl]butyl}-1,4-benzoxazepin-5-one.dihydrochloride-dihydrate] | no significant change | significant shortening of the immobility period | significant increase | 14.3 ± 2.9 ng/mL | 5.3 ± 0.7 ng/mL | significant inhibitory effect | reduced | – |
| Cl.Cl.Fc1ccc(-c2cncc(CNC[C@H]3CCc4ccccc4O3)c2)cc1 [Sarizotan, 1-[(2R)-3,4-dihydro-2H-chromen-2-yl]-N-{[5-(4-fluorophenyl)pyridin-3-yl]methyl}methanamine dihydrochloride] | – | – | – | – | – | – | – | poor in solubility |
